Values of other authors, collected in patent publication US20100095963A1, “PHARMACEUTICAL COMPOSITIONS” (Schering Corporation, priority 2002, published 2010).

What was measured:
[1] = not given; remark: listed apart in the source

partition coefficient between octanol and water: greater than 5000 | solubility in acetone ([1]; acetone): soluble | solubility in chloroform ([1]; chloroform): soluble | solubility in ethanol ([1]; ethanol): slightly soluble | solubility in isopropanol ([1]; isopropanol): slightly soluble | solubility in methanol ([1]; methanol): slightly soluble | solubility in tetrahydrofuran ([1]; tetrahydrofuran): freely soluble | solubility in water ([1]; water): practically insoluble
Compound: C[C@@H]1C[C@H]2[C@@H]3CCC4=CC(=O)C=C[C@]4(C)[C@@]3(Cl)[C@@H](O)C[C@]2(C)[C@@]1(OC(=O)c1ccco1)C(=O)CCl [Mometasone furoate, 9,21-Dichloro-11(beta),17-dihydroxy-16(alpha)-methylpregna-1,4-diene-3,20-dione 17-(2 furoate)]
